Several values for one entry are separate records, joined by “and”; a condition that tells them apart may be missing. Equal entries are not always repeated. Inconclusive results and toxic doses are left out.
System: P388 leukemia ip, CD2F1 mice, survival T/C
Assay: NCI In Vivo Anticancer Drug Screen. Data for tumor model P388 Leukemia (intraperitoneal) in CD2F1 (CDF1) mice
Conditions: endpoint: median survival time, higher = longer survival
Summary of the method: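 Mice carrying the transplanted tumor received test compound or vehicle. Survival was recorded in each group, and the value is the treated-group measurement divided by that of the vehicle-treated control group.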

[1] = dose: 6.25 mg/kg/injection, schedule: Q01DX009 (ip), vehicle: saline
[2] = dose: 12.5 mg/kg/injection, schedule: Q01DX009 (ip), vehicle: saline
[3] = dose: 25.0 mg/kg/injection, schedule: Q01DX009 (ip), vehicle: saline
[4] = dose: 50.0 mg/kg/injection, schedule: Q01DX005 (ip), vehicle: Klucel (hydroxypropylcellulose) (HPC)
[5] = dose: 100.0 mg/kg/injection, schedule: Q01DX005 (ip), vehicle: Klucel (hydroxypropylcellulose) (HPC)
[6] = dose: 25.0 mg/kg/injection, schedule: Q01DX009 (ip), vehicle: other
[7] = dose: 50.0 mg/kg/injection, schedule: Q01DX009 (ip), vehicle: other
[8] = dose: 100.0 mg/kg/injection, schedule: Q04DX003 (ip), vehicle: saline with Tween-80
[9] = dose: 200.0 mg/kg/injection, schedule: Q04DX003 (ip), vehicle: saline with Tween-80
[10] = dose: 400.0 mg/kg/injection, schedule: Q04DX003 (ip), vehicle: saline with Tween-80
[11] = dose: 50.0 mg/kg/injection, schedule: Q01DX009 (ip), vehicle: saline with Tween-80
[12] = dose: 50.0 mg/kg/injection, schedule: Q01DX009 (ip), vehicle: saline
[13] = dose: 50.0 mg/kg/injection, schedule: Q01DX009 (ip), vehicle: Klucel (hydroxypropylcellulose) (HPC)
[14] = dose: 100.0 mg/kg/injection, schedule: Q01DX009 (ip), vehicle: Klucel (hydroxypropylcellulose) (HPC)
[15] = dose: 200.0 mg/kg/injection, schedule: Q01DX009 (ip), vehicle: Klucel (hydroxypropylcellulose) (HPC)
[16] = dose: 12.5 mg/kg/injection, schedule: Q01DX005 (ip), vehicle: saline with Tween-80
[17] = dose: 100.0 mg/kg/injection, schedule: Q01DX009 (ip), vehicle: saline with Tween-80
[18] = dose: 200.0 mg/kg/injection, schedule: Q01DX009 (ip), vehicle: saline with Tween-80

## O=C1C[N+]2(CCCCC2)c2ccc(Cl)cc2N1
[1]
  T/C: 104 % of control
dose: 6.25 mg/kg/injection, schedule: Q04DX003 (ip), vehicle: saline
  T/C: 100 % of control
[2]
  T/C: 109 % of control
dose: 12.5 mg/kg/injection, schedule: Q04DX003 (ip), vehicle: saline
  T/C: 104 % of control
[3]
  T/C: 104 % of control
dose: 25.0 mg/kg/injection, schedule: Q04DX003 (ip), vehicle: saline
  T/C: 100 % of control

## CC(=O)OCC12C(OC(C)=O)C(=O)C3C(OC(C)=O)C14OC3(C)COC(=O)c1cccnc1C(C)C(C)C(=O)OC(C(OC(C)=O)C2OC(C)=O)C4(C)O (stereo unspecified)
dose: 3.0 mg/kg/injection, schedule: Q01DX009 (ip), vehicle: Klucel (hydroxypropylcellulose) (HPC)
  T/C: 104 % of control
dose: 6.0 mg/kg/injection, schedule: Q01DX009 (ip), vehicle: Klucel (hydroxypropylcellulose) (HPC)
  T/C: 93 % of control
dose: 12.0 mg/kg/injection, schedule: Q01DX009 (ip), vehicle: Klucel (hydroxypropylcellulose) (HPC)
  T/C: 96 % of control
dose: 24.0 mg/kg/injection, schedule: Q01DX009 (ip), vehicle: Klucel (hydroxypropylcellulose) (HPC)
  T/C: 96 % of control

## O=Cc1ccc(N2OC3C(=O)N(c4ccccc4)C(=O)C3C2c2ccc([N+](=O)[O-])cc2)cc1 (stereo unspecified)
[4]
  T/C: 96 % of control
[5]
  T/C: 92 % of control
dose: 200.0 mg/kg/injection, schedule: Q01DX005 (ip), vehicle: Klucel (hydroxypropylcellulose) (HPC)
  T/C: 97 % of control

## CCOC(=O)C(CN1C(=O)c2ccccc2C1=O)(NC(C)=O)C(=O)OCC
[6]
  T/C: 103 % of control
[7]
  T/C: 106 % of control
dose: 100.0 mg/kg/injection, schedule: Q01DX009 (ip), vehicle: other
  T/C: 103 % of control
dose: 200.0 mg/kg/injection, schedule: Q01DX009 (ip), vehicle: other
  T/C: 114 % of control
dose: 400.0 mg/kg/injection, schedule: Q01DX009 (ip), vehicle: other
  T/C: 120 % of control

## O=C1c2ccccc2C(=O)c2nc(CBr)c(CBr)nc21
dose: 5.0 mg/kg/injection, schedule: Q01DX005 (ip), vehicle: saline
  T/C: 100 % of control
dose: 10.0 mg/kg/injection, schedule: Q01DX005 (ip), vehicle: saline
  T/C: 100 % of control
dose: 20.0 mg/kg/injection, schedule: Q01DX005 (ip), vehicle: saline
  T/C: 97 % of control

## CCCCN(CCCC)CC(O)c1ccc(Br)c2ccccc12 (stereo unspecified)
dose: 50.0 mg/kg/injection, schedule: Q01DX005 (ip), vehicle: saline with Tween-80
  T/C: 105 % of control
dose: 100.0 mg/kg/injection, schedule: Q01DX005 (ip), vehicle: saline with Tween-80
  T/C: 102 % of control
dose: 200.0 mg/kg/injection, schedule: Q01DX005 (ip), vehicle: saline with Tween-80
  T/C: 104 % of control

## N#Cc1c2c(c(=S)n(-c3ccc(Cl)cc3)c1N)CCCC2
dose: 60.0 mg/kg/injection, schedule: Q01DX005 (ip), vehicle: Klucel + Tween-80
  T/C: 92 % of control
dose: 120.0 mg/kg/injection, schedule: Q01DX005 (ip), vehicle: Klucel + Tween-80
  T/C: 91 % of control
dose: 240.0 mg/kg/injection, schedule: Q01DX005 (ip), vehicle: Klucel + Tween-80
  T/C: 91 % of control

## CC(C(=O)O)N1C(=O)c2ccccc2C1=O (stereo unspecified)
dose: 4.0 mg/kg/injection, schedule: Q01DX009 (ip), vehicle: water
  T/C: 105 % of control
dose: 8.0 mg/kg/injection, schedule: Q01DX009 (ip), vehicle: water
  T/C: 100 % of control
dose: 16.0 mg/kg/injection, schedule: Q01DX009 (ip), vehicle: water
  T/C: 103 % of control
dose: 32.0 mg/kg/injection, schedule: Q01DX009 (ip), vehicle: water
  T/C: 100 % of control
dose: 64.0 mg/kg/injection, schedule: Q01DX009 (ip), vehicle: water
  T/C: 99 % of control

## O=C(c1cccs1)C1Cc2ccccc2C1=O (stereo unspecified)
[8]
  T/C: 95 % of control
[9]
  T/C: 90 % of control
[10]
  T/C: 90 % of control

## COc1cc(O)c(O)cc1C(C)(C)C
dose: 22.5 mg/kg/injection, schedule: Q01DX005 (ip), vehicle: saline with Tween-80
  T/C: 106 % of control
dose: 45.0 mg/kg/injection, schedule: Q01DX005 (ip), vehicle: saline with Tween-80
  T/C: 110 % of control
dose: 90.0 mg/kg/injection, schedule: Q01DX005 (ip), vehicle: saline with Tween-80
  T/C: 97 % of control

## CCN(CC)CC(C)C1NS(=O)(=O)c2ccccc21 (stereo unspecified)
dose: 1.56 mg/kg/injection, schedule: Q01DX009 (ip), vehicle: saline
  T/C: 107 % of control
dose: 3.12 mg/kg/injection, schedule: Q01DX009 (ip), vehicle: saline
  T/C: 98 % of control
[1]
  T/C: 100 % of control
[3]
  T/C: 88 % of control
[11]
  T/C: 86 % of control
[12]
  T/C: 87 % of control

## O=c1ssc(=Nc2ccccc2)n1-c1ccccc1
[13]
  T/C: 109 % of control
[14]
  T/C: 116 % of control and 118 % of control
[15]
  T/C: 113 % of control and 117 % of control
dose: 400.0 mg/kg/injection, schedule: Q01DX009 (ip), vehicle: Klucel (hydroxypropylcellulose) (HPC)
  T/C: 124 % of control

## CCOP(=O)(OCC)C1CCC(=O)O1 (stereo unspecified)
dose: 15.0 mg/kg/injection, schedule: Q01DX005 (ip), vehicle: saline
  T/C: 100 % of control
dose: 30.0 mg/kg/injection, schedule: Q01DX005 (ip), vehicle: saline
  T/C: 99 % of control
dose: 60.0 mg/kg/injection, schedule: Q01DX005 (ip), vehicle: saline
  T/C: 99 % of control and 94 % of control

## Cc1ccc(N2C(c3ccccc3)=CC(=C3C=CC(=O)C=C3)C=C2c2ccccc2)cc1
dose: 3.75 mg/kg/injection, schedule: Q01DX005 (ip), vehicle: saline with Tween-80
  T/C: 110 % of control
dose: 7.5 mg/kg/injection, schedule: Q01DX005 (ip), vehicle: saline with Tween-80
  T/C: 112 % of control
dose: 15.0 mg/kg/injection, schedule: Q01DX005 (ip), vehicle: saline with Tween-80
  T/C: 103 % of control

## C1=C(C2=C[P+](c3ccccc3)(c3ccccc3)C=C(c3ccccc3)O2)OC(c2ccccc2)=C[P+]1(c1ccccc1)c1ccccc1
[16]
  T/C: 103 % of control
dose: 25.0 mg/kg/injection, schedule: Q01DX005 (ip), vehicle: saline with Tween-80
  T/C: 100 % of control

## COP(=O)(OC)C(O)C1CCCCC1 (stereo unspecified)
[2]
  T/C: 100 % of control
[3]
  T/C: 116 % of control
[12]
  T/C: 100 % of control and 106 % of control
dose: 200.0 mg/kg/injection, schedule: Q01DX009 (ip), vehicle: saline
  T/C: 99 % of control

## CC[C@@H](O)[C@H](CC[Se]c1ccccc1)C(=O)[C@H](O)C1CCCCC1
dose: 60.0 mg/kg/injection, schedule: Q01DX005 (ip), vehicle: saline with Tween-80
  T/C: 107 % of control
dose: 120.0 mg/kg/injection, schedule: Q01DX005 (ip), vehicle: saline with Tween-80
  T/C: 105 % of control
dose: 240.0 mg/kg/injection, schedule: Q01DX005 (ip), vehicle: saline with Tween-80
  T/C: 108 % of control

## Nc1cnnc2nc[nH]c12
dose: 12.5 mg/kg/injection, schedule: Q01DX005 (ip), vehicle: Klucel (hydroxypropylcellulose) (HPC)
  T/C: 100 % of control
dose: 25.0 mg/kg/injection, schedule: Q01DX005 (ip), vehicle: Klucel (hydroxypropylcellulose) (HPC)
  T/C: 101 % of control
[4]
  T/C: 100 % of control and 111 % of control
[5]
  T/C: 117 % of control

## CC(=O)c1ccc(OCc2ccccc2)c(OCc2ccccc2)c1
[11]
  T/C: 115 % of control
[17]
  T/C: 106 % of control
[18]
  T/C: 95 % of control
dose: 400.0 mg/kg/injection, schedule: Q01DX009 (ip), vehicle: saline with Tween-80
  T/C: 93 % of control

## CCCCCCC1(/C=C\c2ccc(Cl)cc2Cl)OCCO1
[13]
  T/C: 103 % of control
[14]
  T/C: 110 % of control
[15]
  T/C: 101 % of control

## COC(=O)c1ccccc1NC(C)=NC(C)(C)C
[11]
  T/C: 103 % of control
[17]
  T/C: 90 % of control
[18]
  T/C: 90 % of control

## Cc1[nH]cc2c1C(c1ccccc1F)=NCC(=O)N2
[8]
  T/C: 101 % of control
[9]
  T/C: 100 % of control
[10]
  T/C: 101 % of control

## COc1ccc(S(=O)(=O)N/N=C/C(=O)O)cc1
dose: 6.25 mg/kg/injection, schedule: Q01DX009 (ip), vehicle: other
  T/C: 116 % of control
[16]
  T/C: 118 % of control
[6]
  T/C: 162 % of control
dose: 50.0 mg/kg/injection, schedule: Q01DX005 (ip), vehicle: distilled water + Tween-80
  T/C: 154 % of control
[7]
  T/C: 158 % of control and 159 % of control
dose: 100.0 mg/kg/injection, schedule: Q01DX005 (ip), vehicle: distilled water + Tween-80
  T/C: 182 % of control
